Test results published in patent publication US20220338471A1, “HONEY BEE-SAFE ACARICIDAL COMPOUNDS” (Kansas State University Research Foundation, priority 2019, published 2022).
Where “and” joins values, the source holds several entries; their conditions need not be identical. Equal entries are not always repeated. Where two headings read alike, the source gives them in different places. Square brackets hold non-standard residues; d marks the D form. Ends that are not written are not given here. Peptide text beside a SMILES is read from it. Oic = O=C(O)[C@@H]1C[C@@H]2CCCC[C@@H]2N1; Phe(4-Cl) = N[C@@H](Cc1ccc(Cl)cc1)C(=O)O; Phe(4-F) = N[C@@H](Cc1ccc(F)cc1)C(=O)O; Hyp = O=C(O)[C@@H]1C[C@@H](O)CN1; β3hF = N[C@H](CC(=O)O)Cc1ccccc1; β3hL = CC(C)C[C@H](N)CC(=O)O; β3hP = O=C(O)C[C@@H]1CCCN1; Aib = CC(C)(N)C(=O)O

Assays:
[1] = molecular target: T1, varroa mite proctolin receptor (VdProctR) (Varroa destructor, UniProt A0A7T1TE40); experiment: Receptor activity assay: luminescence in cells transiently transfected with varroa mite proctolin receptor; assay type: cell-based; settings: for EC50: varroa mite proctolin receptor; for Activity at high concentrations compared with proctolin: at 1 μM and 10 μM; for Factor by which potency exceeds that of the corresponding analog with only a single replacement at Y2: 2338 vs 2333, 2337 vs 2329
T1 sequence (A0A7T1TE40 1-530): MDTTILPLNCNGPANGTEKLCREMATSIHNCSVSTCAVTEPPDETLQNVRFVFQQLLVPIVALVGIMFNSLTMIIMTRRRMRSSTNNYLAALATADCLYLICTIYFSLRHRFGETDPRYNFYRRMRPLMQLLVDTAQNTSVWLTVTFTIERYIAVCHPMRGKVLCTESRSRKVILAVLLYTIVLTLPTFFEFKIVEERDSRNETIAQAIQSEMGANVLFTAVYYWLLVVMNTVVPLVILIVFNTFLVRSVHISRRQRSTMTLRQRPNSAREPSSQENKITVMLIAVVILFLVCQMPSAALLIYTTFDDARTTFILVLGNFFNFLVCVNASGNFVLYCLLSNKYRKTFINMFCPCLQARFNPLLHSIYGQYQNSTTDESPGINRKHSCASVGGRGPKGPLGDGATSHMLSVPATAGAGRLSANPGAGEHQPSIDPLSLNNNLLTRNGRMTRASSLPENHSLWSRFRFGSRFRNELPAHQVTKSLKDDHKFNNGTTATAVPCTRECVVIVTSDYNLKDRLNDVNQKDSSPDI
Procedure: (§1) Approximately thirty hours after transfection, the cells were collected and preincubated with coelenterazine h for the functional assay. The ligands in serial dilutions were loaded into 96-well opaque plates. Cells treated with coelenterazine h were injected into each well on an Orion microplate luminometer (Berthold) luminescent plate reader. The luminescence was measured for 20 seconds immediately after the cell injections. Data analyses were performed to determine the accumulated luminescence value for 20 seconds after extraction of blank-well luminescence. A dose-response curve was generated and the EC50 (50% effective concentration) was calculated in Origin 7 (OriginLab).

Varroa mites = experiment: Injection of compound into the body cavity of varroa mites (excretion); assay type: in vivo, Varroa destructor; settings: ~5 nL of 200 μM
Excerpt: Micro-glass electrodes were used for the injections using the pressure injection system (Dagan PMI-200). All injected animals were within 5 hr after the collections as described above.

[2] = system: honey bee FMRFamide receptor; experiment: Activity on the honey bee FMRFamide receptor expressed in the same system; assay type: cell-based; settings: in words
Procedure: as §1
Honey bee FMRFamide receptor was cloned and expressed in the same system as described for the procotolin receptor. […] Potential effects of the peptidomimetics 2439, 2334, 2336, Ac-2442, and H2O control were tested by injections of the compounds into the thorax of worker honey bees.

[3] = system: empty vector transfected cells; experiment: Receptor activity assay, negative control: cells transfected with empty vector; assay type: cell-based; settings: 10 μM proctolin
Procedure: as §1, with “Receptor activity assay: […] Approximately” for “Approximately”, “[…] The receptor” for “A dose-response curve”, “also tested with a variety of peptide analogues” for “generated”, “peptidomimetics.” for “the EC50 (50% effective concentration) was calculated in Origin 7 (OriginLab).”

Bombyx mori larval gut = settings: cited from earlier work
honey bee queen = settings: injection, 1 μL containing 1 μg; cited from earlier work
[4] = EC50 (nM), second set of peptidomimetics
[5] = second set, EC50 relative to proctolin (14.19 nM)
[6] = first set of experiments, EC50 relative to proctolin (0.22 nM)
[7] = first set of experiments, read-out: EC50
[8] = EC50 (nM), first set of experiments

Molecule	Fold change [1, 6]	EC50 [1, 7]	EC50 [1, 8]	also measured
CC(=O)N[C@@H](CCCNC(=N)N)C(=O)N[C@@H](Cc1ccc(F)cc1)C(=O)N[C@@H](CC(C)C)C(=O)N1C[C@H](O)C[C@H]1C(=O)N[C@H](C(=O)O)[C@@H](C)O [Ac-2441, Ac-R[Phe(4-F)]L[HyP]T] (Ac-R[Phe(4-F)]L[Hyp]T-OH)				EC50 [1, 4]: 471 nM; Fold change [1, 5]: 33.20
CC(=O)N[C@@H](CCCNC(=N)N)C(=O)N[C@@H](Cc1ccc(Cl)cc1)C(=O)N[C@@H](CC(C)C)C(=O)N1C[C@H](O)C[C@H]1C(=O)N[C@H](C(=O)O)[C@@H](C)O [Ac-2443, Ac-R[Phe(4-Cl)]L[HyP]T] (Ac-R[Phe(4-Cl)]L[Hyp]T-OH)				EC50 [1, 4]: 108 nM; Fold change [1, 5]: 7.64
CC(C)C[C@H](NC(=O)[C@H](Cc1ccc(O)cc1)NC(=O)[C@@H](N)CCCNC(=N)N)C(=O)N1CCC[C@H]1C(=O)N[C@@H](C(=O)O)[C@H](C)O [Analog 2326, RYLP[dT]] (H-RYLP[dT]-OH; N-terminus assumed)	13600.00	2990 nM		Agonist activity / potency on the Varroa mite proctolin receptor, in words ([1]; in words): inactive agonist
CC(C)C[C@H](NC(=O)[C@H](Cc1ccc(O)cc1)NC(=O)[C@@H](N)CCCNC(=N)N)C(=O)N1CCC[C@@H]1C(=O)N[C@H](C(=O)O)[C@@H](C)O [Analog 2327, RYL[dP]T] (H-RYL[dP]T-OH)	2496.82	549 nM		
CC(C)C[C@@H](NC(=O)[C@H](Cc1ccc(O)cc1)NC(=O)[C@@H](N)CCCNC(=N)N)C(=O)N1CCC[C@H]1C(=O)N[C@H](C(=O)O)[C@@H](C)O [Analog 2328, RY[dL]PT] (H-RY[dL]PT-OH)	413.36	90.9 nM		
CC(C)C[C@H](NC(=O)[C@@H](Cc1ccc(O)cc1)NC(=O)[C@@H](N)CCCNC(=N)N)C(=O)N1CCC[C@H]1C(=O)N[C@H](C(=O)O)[C@@H](C)O [Analog 2329, R[dY]LPT] (H-R[dY]LPT-OH)	672.27	148 nM		
CC(C)C[C@H](NC(=O)[C@H](Cc1ccc(O)cc1)NC(=O)[C@H](N)CCCNC(=N)N)C(=O)N1CCC[C@H]1C(=O)N[C@H](C(=O)O)[C@@H](C)O [Analog 2330, [dR]YLPT] (H-[dR]YLPT-OH; N-terminus assumed)	25.55	5.6 nM and 5.62 nM		Activity at high concentrations compared with proctolin [1]: higher than that of proctolin
CC(C)C[C@H](NC(=O)[C@H](Cc1ccc(O)cc1)NC(=O)[C@@H](N)CCCNC(=N)N)C(=O)N1CCC[C@H]1CC(=O)N[C@H](C(=O)O)[C@@H](C)O [Analog 2331, RYL[β3P]T] (H-RYL[β3hP]T-OH; N-terminus assumed)	20.00	4.4 nM		Activity at high concentrations compared with proctolin [1]: higher than that of proctolin
CC(C)C[C@@H](CC(=O)N1CCC[C@H]1C(=O)N[C@H](C(=O)O)[C@@H](C)O)NC(=O)[C@H](Cc1ccc(O)cc1)NC(=O)[C@@H](N)CCCNC(=N)N [Analog 2332, RY[β3L]PT] (H-RY[β3hL]PT-OH)	927.27	204 nM		
CC(C)C[C@H](NC(=O)C[C@H](Cc1ccccc1)NC(=O)[C@@H](N)CCCNC(=N)N)C(=O)N1CCC[C@H]1C(=O)N[C@H](C(=O)O)[C@@H](C)O [Analog 2333, R[β3F]LPT] (H-R[β3hF]LPT-OH)	991.82	218 nM		
CC(C)C[C@H](NC(=O)[C@H](Cc1ccc(O)cc1)NC(=O)[C@@H](N)CCCNC(=N)N)C(=O)N1C[C@H](O)C[C@H]1C(=O)N[C@H](C(=O)O)[C@@H](C)O [Analog 2334, RYL[HyP]T] (H-RYL[Hyp]T-OH; N-terminus assumed)	2.5 and 2.45	0.54 nM		Activity at high concentrations compared with proctolin [1]: higher than that of proctolin; Agonist activity / potency on the Varroa mite proctolin receptor, in words ([1]; in words): strong agonists; Individuals with immediate excretion of a drop of fecal material through the anus (Varroa mites): 3/4
CC(C)C[C@H](NC(=O)[C@H](Cc1ccc(O)cc1)NC(=O)[C@@H](N)CCCNC(=N)N)C(=O)NC(C)(C)C(=O)N[C@H](C(=O)O)[C@@H](C)O [Analog 2335, RYL[Aib]T] (H-RYL[Aib]T-OH)	10.09	2.2 nM and 2.22 nM		
CC(C)C[C@H](NC(=O)[C@@H](Cc1ccc(O)cc1)NC(=O)[C@@H](N)CCCNC(=N)N)C(=O)N1C[C@H](O)C[C@H]1C(=O)N[C@H](C(=O)O)[C@@H](C)O [Analog 2337, R[dY]L[HyP]T] (H-R[dY]L[Hyp]T-OH; N-terminus assumed)	163.00		36 nM and 35.9 nM	Factor by which potency exceeds that of the corresponding analog with only a single replacement at Y2 [1]: 4; Efficacy (maximal response) ([1]; in words): full efficacy
CC(C)C[C@H](NC(=O)C[C@H](Cc1ccccc1)NC(=O)[C@@H](N)CCCNC(=N)N)C(=O)N1C[C@H](O)C[C@H]1C(=O)N[C@H](C(=O)O)[C@@H](C)O [Analog 2338, R[β3F]L[HyP]T] (H-R[β3hF]L[Hyp]T-OH)	119.59		26 nM and 26.3 nM	Factor by which potency exceeds that of the corresponding analog with only a single replacement at Y2 [1]: 8; Efficacy (maximal response) ([1]; in words): full efficacy
CC(C)C[C@H](NC(=O)[C@@H](Cc1ccc(O)cc1)NC(=O)[C@@H](N)CCCNC(=N)N)C(=O)N1[C@H](C(=O)N[C@H](C(=O)O)[C@@H](C)O)C[C@@H]2CCCC[C@@H]21 [Analog 2340, R[dY]L[Oic]T] (H-R[dY]L[Oic]T-OH; N-terminus assumed)	1262.27		278 nM	Potency compared with 2337 and 2338 ([1]; in words): less potent than 2337 and 2338 by approximately an order of magnitude
CC(C)C[C@H](NC(=O)[C@H](Cc1ccc(F)cc1)NC(=O)[C@@H](N)CCCNC(=N)N)C(=O)N1CCC[C@H]1C(=O)N[C@H](C(=O)O)[C@@H](C)O [Analog 2438, R[Phe(4-F)]LPT] (H-R[Phe(4-F)]LPT-OH)				EC50 [1, 4]: 7.55 nM; Fold change [1, 5]: 0.53
CC(C)C[C@H](NC(=O)[C@H](Cc1ccc(Cl)cc1)NC(=O)[C@@H](N)CCCNC(=N)N)C(=O)N1CCC[C@H]1C(=O)N[C@H](C(=O)O)[C@@H](C)O [Analog 2440, R[Phe(4-Cl)]LPT] (H-R[Phe(4-Cl)]LPT-OH)				EC50 [1, 4]: 7.03 nM; Fold change [1, 5]: 0.50
CC(C)C[C@H](NC(=O)[C@H](Cc1ccc(F)cc1)NC(=O)[C@@H](N)CCCNC(=N)N)C(=O)N1C[C@H](O)C[C@H]1C(=O)N[C@H](C(=O)O)[C@@H](C)O [Analog 2441, R[Phe(4-F)]L[HyP]T] (H-R[Phe(4-F)]L[Hyp]T-OH; N-terminus and C-terminus assumed)				EC50 [1, 4]: 9.93 nM; Activity compared with proctolin, in words ([1]; second set, Y2 phenylalanine variants): higher activity than proctolin; Fold change [1, 5]: 0.70
GRYLPT [Analog G1, GRYLPT]	140.36		30.9 nM	
RGYLPT [Analog G2, RGYLPT]	72095.45		15900 nM	
RYGLPT [Analog G3, RYGLPT]	142868.18		31400 nM	
RYLGPT [Analog G4, RYLGPT]	4954.55		1090 nM	
RYLPGT [Analog G5, RYLPGT]	5259.09		1160 nM	
RYLPT [Proctolin, RYLPT]	1.00		0.22 nM	EC50 [1, 4]: 14.2 nM; Fold change [1, 5]: 1.00; Activity on the honey bee FMRFamide receptor [2]: no activities; Activity on empty vector transfected cells [3]: did not show any activity; Concentration required for hindgut contraction (Bombyx mori larval gut; Bombyx mori larval hindgut): 180 µM; Concentration required in the midgut to slightly reduce leucine uptake (Bombyx mori larval gut; Bombyx mori larval midgut): 10 µM; Egg-laying activity of the queen (honey bee queen): increased the egg-laying activity of the queen
RYLPTG [Analog G6, RYLPTG]	2175.00		478 nM	Activity at high concentrations compared with proctolin [1]: higher than that of proctolin
